Source: US6555356B2, “Methods for microbial regulation” (Unisearch Limited, priority 1995, dated 2003)
In brackets after ≈: the same amount, converted by molar mass.

Assays:
Format in all cases: cell-based
Vibrio fisheri [1] = experiment: Vibrio fisheri bioluminescence assay; conditions: 100 μg/ml, visual inspection of agar plates
Description: (§1) Initial assays for both strains of Vibrio were streaked onto LB agar plates (with 2% NaCl) with and without furanone compounds 1-4 at 5-100 μg/ml. Bioluminescence of the plates was visually assessed after 24 hours of incubation at room temperature. In subsequent assays, both strains were grown in liquid culture in the presence of furanones. Bioluminescence was assayed via a luminometer. The effects of furanones on growth of both strains were assayed as above.

[2] = system: Chromobacterium violencia mutant negative for the HSL auto inducer; experiment: Chromobacterium violencia (indigo) assay; conditions: for Effect on HSL phenotype: indigo formation: Chromobacterium violencia, 100 μg/ml; for Stimulation of indigo production by the compound itself: indigo negative Chromobacterium violencia mutant, addition of compound
Description: (§2) A mutant of Chromobacterium violencia negative for the HSL auto inducer was used in the assay. The strain was pour plated in LB medium at high density and wells were punched after the media had set. Sterile, filtered supernatants from various HSL producing strains were added to the wells. Plates were incubated at 30° C. and observed for the formation of purple zones (due to […]) around the wells. The effects of furanone compounds 1 and 2 (FIG. 3) were assessed by running this assay on plates of LB medium containing furanone compounds at a concentration of 100 μg/ml. The effects of the compounds on growth of Chromobacterium were assessed as above.

strain R130 [3] = experiment: Marine isolate growth in liquid media, strain R130
Description: (§3) The effect on growth of Serratia liquefaciens by furanone compounds was also measured in liquid LB medium by comparing growth of cultures without the addition of compounds versus growth of cultures with added furanone compounds (100 μg/ml of compounds 1-13 (FIG. 3) in separate cultures). Growth was measured as optical density at 450 nm and followed over a 48 hr period.
(§4) Methods followed those described for Serratia liquefaciens (above). Inhibition of growth of these bacteria by furanones was assessed as above.

strain R130 [4] = experiment: Marine isolate swarming, strain R130
Description: (§5) Serratia liquefaciens was grown in liquid LB medium at room temperature to an optical density of 0.3 at 450 nm and stable inoculated onto LB agar (0.7% agar) plates. Plates were incubated at 30° C. and observed regularly for swarming behaviour. The effect on swarming of furanone compounds was tested by adding (after sterilisation and cooling of the agar) compounds 1-13 (FIG. 3). in the concentration range of 5-100 μg/ml, to the plates.
as §4

Vibrio fisheri [5] = experiment: Growth of Vibrio fisheri
Description: as §3, §1

Pseudomonas aeruginosa [6] = experiment: Growth of Pseudomonas aeruginosa on plates; conditions: 100 μg/ml
Description: (§6) Inoculants from precultures were streaked onto Peptone-Tryptic Soy Broth agar containing 0.3% elastin. Plates were incubated at 37° C. and observed for hydrolysis of the elastin. The effect of furanone compounds was assess by adding compounds 1-4 (100 μg/ml) to the plates and comparing zones of hydrolysis in plates with and without the compounds.

Helminthosporium sp. = experiment: Fungal growth inhibition zone assay, Helminthosporium sp.
Description: (§7) In addition to the tests described above, the effects of selected compounds of the general formula 2 on growth of bacteria, one yeast (Candida albicans) and one fungus (Helminthosporium sp.) were assessed. Bacteria were grown in liquid media in the presence of different concentrations of furanones and growth measured via changes in optical density (OD). Fungal assays were done by inoculating agar plates with spores. These plates contained different concentrations of furanone compounds in wells within the plates. Zones of inhibition around these wells were measured after 48 hours.

strain R86 [7] = experiment: Marine isolate swimming, strain R86
strain V55 [8] = experiment: Marine isolate growth in liquid media, strain V55
Description: as §3, §4

strain V55 [9] = experiment: Marine isolate swimming, strain V55
strain R130 [10] = experiment: Marine isolate swimming, strain R130
Vibrio harveyi [11] = experiment: Vibrio harveyi bioluminescence assay; conditions: 100 μg/ml, visual inspection of agar plates
Description: as §1

strain R86 [12] = experiment: Marine isolate growth in liquid media, strain R86
Description: as §3, §4

strain R12 [13] = experiment: Marine isolate swimming, strain R12
Serratia liquefaciens [14] = experiment: Growth of Serratia liquefaciens in liquid LB medium; conditions: 100 μg/ml
Description: as §3

strain V54 [15] = experiment: Marine isolate swimming, strain V54
strain R12 [16] = experiment: Marine isolate swarming, strain R12
Description: as §5, §4

strain V54 [17] = experiment: Marine isolate growth in liquid media, strain V54
Description: as §3, §4

strain V21 [18] = experiment: Marine isolate swimming, strain V21
strain V55 [19] = experiment: Marine isolate swarming, strain V55
Description: as §5, §4

Pseudomonas aeruginosa [20] = experiment: Pseudomonas aeruginosa (elastase) assay; conditions: 100 μg/ml in elastin agar
Description: as §6

Vibrio harveyi [21] = experiment: Growth of Vibrio harveyi
Description: as §3, §1

[22] = system: Chromobacterium violencia; experiment: Growth of Chromobacterium violencia; conditions: 100 μg/ml
Description: as §3, §2

strain V21 [23] = experiment: Marine isolate swarming, strain V21
Description: as §5, §4

strain V54 [24] = experiment: Marine isolate swarming, strain V54
Description: as §5, §4

strain V21 [25] = experiment: Marine isolate growth in liquid media, strain V21
Description: as §3, §4

strain R12 [26] = experiment: Marine isolate growth in liquid media, strain R12
Description: as §3, §4

Serratia liquefaciens [27] = experiment: Serratia liquefaciens swarming assay; conditions: 5-100 μg/ml in LB agar (0.7%) plates
Description: as §5

Candida albicans = experiment: Fungal growth inhibition zone assay, Candida albicans
Description: as §7

strain R86 [28] = experiment: Marine isolate swarming, strain R86
Description: as §5, §4

Row | SMILES | Effect on HSL phenotype: luminescence (Vibrio fisheri [1]) | Effect on HSL phenotype: indigo formation [2] | Stimulation of indigo production by the compound itself [2] | Minimum inhibitory concentration, Growth (strain R130 [3]) [µg/mL] | Minimum inhibitory concentration, Swarming (strain R130 [4]) [µg/mL] | Effect on bacterial growth (Vibrio fisheri [5]) | width of inhibition zone (Helminthosporium sp.; amount added 0.1 μg) [mm] | width of inhibition zone (Helminthosporium sp.; amount added 1 μg) | width of inhibition zone (Helminthosporium sp.; amount added 10 μg) | width of inhibition zone (Helminthosporium sp.; amount added 100 μg) | Minimum inhibitory concentration, Swimming (strain R86 [7]) [µg/mL] | Minimum inhibitory concentration, Growth (strain V55 [8]) [µg/mL] | Minimum inhibitory concentration, Swimming (strain V55 [9]) [µg/mL] | Minimum inhibitory concentration, Swimming (strain R130 [10]) [µg/mL] | Effect on HSL phenotype: luminescence (Vibrio harveyi [11]) | Minimum inhibitory concentration, Growth (strain R86 [12]) [µg/mL] | width of inhibition zone (Candida albicans; amount added 0.1 μg) | width of inhibition zone (Candida albicans; amount added 1 μg) | width of inhibition zone (Candida albicans; amount added 10 μg) | width of inhibition zone (Candida albicans; amount added 100 μg) | further results
1 | CCCCC1=C(Br)C(=CBr)OC1=O [Compound 2] | inhibit | inhibit | do not stimulate | >50 | 25 (≈ 80.6 µM) | no effect | 0 | 0 mm | 2-4 mm | 20 mm | >50 | >50 | 5 (≈ 16.1 µM) | >50 | inhibit | >50 | 0 mm | 0 mm | 0 mm | 2-3 mm | Effect on bacterial growth (Pseudomonas aeruginosa [6]): no detectable effect; Minimum inhibitory concentration, Swimming (strain R12 [13]): >50 µg/mL; Effect on bacterial growth (Serratia liquefaciens [14]): no effect; Minimum inhibitory concentration, Swimming (strain V54 [15]): 5 µg/mL (≈ 16.1 µM); Minimum inhibitory concentration, Swarming (strain R12 [16]): 5 µg/mL (≈ 16.1 µM); Minimum inhibitory concentration, Growth (strain V54 [17]): >50 µg/mL; Minimum inhibitory concentration, Swimming (strain V21 [18]): 25 µg/mL (≈ 80.6 µM); Minimum inhibitory concentration, Swarming (strain V55 [19]): 5 µg/mL (≈ 16.1 µM); Effect on HSL phenotype: elastase (Pseudomonas aeruginosa [20]): stimulated; Effect on bacterial growth (Vibrio harveyi [21]): no effect; Effect on bacterial growth [22]: no effect; Minimum inhibitory concentration, Swarming (strain V21 [23]): 5 µg/mL (≈ 16.1 µM); Minimum inhibitory concentration, Swarming (strain V54 [24]): 5 µg/mL (≈ 16.1 µM); Minimum inhibitory concentration, Growth (strain V21 [25]): 25 µg/mL (≈ 80.6 µM); Minimum inhibitory concentration, Growth (strain R12 [26]): >50 µg/mL; Effect on HSL phenotype: swarming (Serratia liquefaciens [27]): inhibit; Minimum inhibitory concentration, Swarming (strain R86 [28]): 5 µg/mL (≈ 16.1 µM)
2 | CCCCC1=CC(=C(Br)Br)OC1=O [Compound 8] | – | – | – | – | – | – | 0 | 0 mm | 0 mm | 20 mm | – | – | – | – | – | – | 0 mm | 0 mm | 0 mm | 0 mm | –
3 | C[C@@H]1[C@H](O)[C@@H](C)/C=C/C=C/C=C/C=C/C=C/C=C/C=C/[C@H](O[C@@H]2O[C@H](C)[C@@H](O)[C@H](N)[C@@H]2O)C[C@@H]2O[C@](O)(C[C@@H](O)C[C@@H](O)[C@H](O)CC[C@@H](O)C[C@@H](O)CC(=O)O[C@H]1C)C[C@H](O)[C@H]2C(=O)O [Amphotericin B, reference compound] | – | – | – | – | – | – | 2 | 6 mm | 6-8 mm | 7-10 mm | – | – | – | – | – | – | 2-4 mm | 5-7 mm | 6-10 mm | 1.14 mm | –
4 | CCCCCCC1=CC(=C(Br)Br)OC1=O [Compound 13] | – | – | – | – | – | – | 0 | 0 mm | 0 mm | 0 mm | – | – | – | – | – | – | 0 mm | 0 mm | 0 mm | 1 mm | –
5 | CCCCC1=C(Br)C(=C(Br)Br)OC1=O [Compound 1] | inhibit | inhibit | do not stimulate | >50 | 25 (≈ 64.3 µM) | no effect | 0 | 0 mm | 2-5 mm | 20 mm | 50 (≈ 129 µM) | >50 | 5 (≈ 12.9 µM) | >50 | inhibit | >50 | 0 mm | 0 mm | 0 mm | 1-2 mm | Minimum inhibitory concentration, Swimming (strain R12 [13]): >50 µg/mL; Effect on bacterial growth (Serratia liquefaciens [14]): no effect; Minimum inhibitory concentration, Swimming (strain V54 [15]): 5 µg/mL (≈ 12.9 µM); Minimum inhibitory concentration, Swarming (strain R12 [16]): 5 µg/mL (≈ 12.9 µM); Minimum inhibitory concentration, Growth (strain V54 [17]): >50 µg/mL; Minimum inhibitory concentration, Swimming (strain V21 [18]): 25 µg/mL (≈ 64.3 µM); Minimum inhibitory concentration, Swarming (strain V55 [19]): 5 µg/mL (≈ 12.9 µM); Effect on HSL phenotype: elastase (Pseudomonas aeruginosa [20]): stimulated; Effect on bacterial growth (Vibrio harveyi [21]): no effect; Effect on bacterial growth [22]: no effect; Minimum inhibitory concentration, Swarming (strain V21 [23]): 5 µg/mL (≈ 12.9 µM); Minimum inhibitory concentration, Swarming (strain V54 [24]): 25 µg/mL (≈ 64.3 µM); Minimum inhibitory concentration, Growth (strain V21 [25]): 25 µg/mL (≈ 64.3 µM); Minimum inhibitory concentration, Growth (strain R12 [26]): >50 µg/mL; Effect on HSL phenotype: swarming (Serratia liquefaciens [27]): inhibit; Minimum inhibitory concentration, Swarming (strain R86 [28]): 25 µg/mL (≈ 64.3 µM)
6 | CCCC(OC(C)=O)C1=C(Br)C(=CI)OC1=O (stereo not drawn) [Compound 5] | – | – | – | – | – | – | 0 | 2-4 mm | 9-13 mm | 20 mm | – | – | – | – | – | – | 0 mm | 0 mm | 1 mm | 3-8 mm | –
